Assay results published in patent US20110295343A1, “NEAR-INFRARED ELECTROMAGNETIC MODIFICATION OF CELLULAR STEADY-STATE MEMBRANE POTENTIALS” (priority 2008, published 2011).
“And” between values parts separate entries of the source, which are not always exact repeats. Equal values may be shown once. Read-outs that look alike come from different tables or passages of the source.

Experiments:
[1] = test system: MRSA; assay: CFU counts of MRSA plated on agar with antibiotic after sub-lethal NIMELS laser (Examples IX-XII); type: cell-based, Staphylococcus aureus; settings: for effect of sub-lethal NIMELS irradiation on antibiotic action against MRSA colonies (words): antibiotic at resistant MIC just below effectiveness level
Description: The following parameters illustrate the general bacterial methods according to the invention as applied to MRSA for the in vitro Experiments V and VIII-XII.
The null hypothesis is μ1−μ2=0 and μ1−μ3=0 where:
a) μ1 is sub-lethal dosimetry from the NIMEL laser system on MRSA as a control and;
The null hypothesis is μ1−μ2=0 and μ1−μ3=0 where: • a) μ1 is sub-lethal dosimetry from the NIMEL laser system on MRSA as a control and; • b)μ2 is the same sub-lethal dosimetry from the NIMEL laser system on MRSA with the addition of tetracycline at resistant MIC just below effectiveness level and; • c) μ3 is the same sub-lethal dosimetry from the NIMEL laser system on MRSA with the addition of rifampin at resistant MIC just below effectiveness level.
The null hypothesis is μ1−μ2=0 and μ1−μ3=0 where: a) μ1 is sub-lethal dosimetry from the NIMEL laser system on MRSA as a control and; b)μ2 is the same sub-lethal dosimetry from the NIMEL laser system on MRSA with the addition of methicillin at resistant MIC just below effectiveness level and; […]

[2] = test system: MRSA in the nares; assay: Nasal colonization human study Part One, quantitative swab cultures, MRSA; type: in vivo, S. aureus; settings: for MRSA Average: laser w/ drug arm, one line per patient; for reduction of bioburden: laser plus 2% erythromycin paste
Experimental: (§1) This investigational protocol was an open-label study of subjects who are colonized with MRSA in the nares (nostril). The study was done in two parts.
(§2) In this human study, three arms were produced. […] This was done on day 1 and again on day three; and Arm #3: ⅓ of the subjects were treated with the laser and then a topical antibiotic three times a day for five days. Prior to enrollment in this study, prospective subjects met all of the following criteria: age≧18 years and ≦70 years of age; previous positive MRSA culture; negative urine pregnancy test or post-menopausal for one year; willing to comply with study requirements, including return visits and self-application of topical antibiotics; and willing to provide informed consent to participate. Prospective subjects were excluded from this study if any of the following criteria were met: pregnancy; patients who are severely immunocompromised (such as may occur in AIDS, renal transplant regimens, immunosuppressed states consequent to malignancy or agents used in rendering oncologic care, or who suffer from end stage renal disease); diabetic patients; allergy to antimicrobials being used in the study (group 3).
(§3) All participants underwent an initial quantitative assessment for nasal carriage of S. aureus, during their first visit. Each participant had the anterior nares (each nostril) sampled for culture with a circular movement (three rotations on each side) of a sterile wood applicator plain Rayon® tipped swab in each nostril and placed in a labled tube. 2 ml of room temp phosphate buffered saline was placed in the tube after the removal of the swab (to completely cover the swab in the tube). Each swab was then placed back in the tube and the tube was then vortexed for 15 seconds to disperse isolates of MRSA and/or MSSA into the PBS solution. Aliquots of PBS from the tube were plated in the following manner: 100 μl from each tube was lawn plated in triplicate (3×) on selective Chromogenic MRSA And MSSA agar. Plates were placed in incubator within 30 minutes of the plating procedure, and colonies were counted manually, and recorded 18 hrs after plating.
(§4) On day one of the study, all subjects underwent this exact procedure in arms 1 and 2 of the study two minutes before the laser procedure. They again were sampled in the same manner 2 minutes after the laser procedure. In the third arm of the study, they were swabbed two minutes before the procedure and the first antibiotic administration was completed after the laser therapy. The post/laser swab sample was taken for this arm 20 min later.
(§5) On day three of the study, all subjects from arms one two and three underwent the exact same procedures as day 1 of the study.
(§6) On day five all subjects from all arms underwent just one swabbing per nostril with the exact same sampling procedure one time.
(§7) Application of H202: 3% OTC hydrogen peroxide was applied to a cotton pledget for application to the subject prior to irradiation. This was inserted in the nose for 120 seconds and then removed. The subjects were then given doses of phototherapeutic near infrared radiation as described. Application of generic topical Antimicrobial: The subjects were first given doses of phototherapeutic near infrared radiation as described. […] The swab was inserted approximately 1 cm in to the anterior nares and rotated 360 degrees several times and removed. Patients were instructed to perform the exact application procedure 3 times a day for the remaining 5 days.
(§8) The NOVEON™ laser was used for two (2) six-minute treatments in each nostril on day (1) and day (3) of the study.
(§9) The laser was calibrated before the first treatment of the day. Intermittent temperature testing of the treatment site was performed on each subject using a noncontact infrared thermometer (Raytek Minitemp), 30-60 second intervals.

[3] = test system: MSSA in the nares; assay: Nasal colonization human study Part One, quantitative swab cultures, MSSA; type: in vivo, S. aureus; settings: for s. aureus Average: laser w/ drug arm, one line per patient
Experimental: as §1, §2, §3, §4, §5, §6, §7, §8, §9

[4] = test system: MSSA in the nares; assay: Nasal colonization human study Part Two, laser plus topical erythromycin, MSSA; type: in vivo, S. aureus; settings: one patient, baseline count >1000 CFU's; day 5 culture
Experimental: A second human study was conducted, to further evaluate the therapeutic potential of the NOVEON™ laser system, including its ability to reverse drug resistance in bacteria. The study was conducted in a similar manner as Part One, above. Outcome measures assessed included both laboratory study and clinical observations.
Positive anterior nares cultures were obtained in six patients (12 nostrils) having nasal colonization of MRSA or MSSA, before initiating bacterial photodamage through doses of phototherapeutic near infrared radiation. One patient had MRSA only, 3 had MSSA only, and 2 had both MRSA and MSSA.
The swab was inserted approximately 1 cm in to the anterior nares of the subject, rotated 360 degrees several times and removed.
The laser was calibrated before the first treatment of the day and between each patient. The NOVEON™ laser was used for four six-minute treatments of the nares at the following sets of dosimetries (Tables 59), which were evaluated for safety in previous studies. […] Temperatures of the nares were recorded every 30 seconds with an IR temperature thermometer.
Quantitative cultures from each nostril were obtained and plated in triplicate on chromogenic agar before and 20 minutes after exposure on day 1 and day 3. […]

[5] = test system: C. albicans; assay: Colony counts of C. albicans plated with Lamisil or Sporanox after sub-lethal NIMELS laser (Example XIII); type: cell-based, Candida albicans; settings: for C. albicans Colony Counts, Control: no laser, group AF8, replicates 1-5; for C. albicans Colony Counts, Experimental: sub-lethal NIMELS laser (AF-8 dosimetry), replicates 1-5
Experimental: Similar cell culture and kinetic protocols were performed for all NIMELS irradiation with E. coli and C. albicans in vitro tests. […] A standardized suspension was aliquoted into selected wells in a 24-well tissue culture plate. Following laser treatments, 100 μL was removed from each well and serially diluted to 1:1000 resulting in a final dilution of 1:5×10^6 of initial culture. An aliquot of each final dilution were spread onto separate plates. The plates were then incubated at 37° C. for approximately 16-20 hours. Manual colony counts were performed and recorded.
The null hypothesis is μ1−μ2=0 and μ1−μ3=0 where: a) μ1 is sub-lethal dosimetry ftom the NIMEL laser system on C. albicans as a control and; b) μ2 is the same sub-lethal dosimetry from the NTMEL laser system on C. albicans with the addition of Sporanos at resistant MIC just below effectiveness level and; c) μ3 is the same sub-lethal dosimetry from the NIMEL laser system on C. albicans with the addition of Lamisil at resistant MIC just below effectiveness level.

[6] = test system: S. aureus; settings: cited from earlier work
[7] = Initial Analysis, Post-treatment swab, left nostril
[8] = Initial Analysis, Post-treatment swab, right nostril
[9] = Initial Analysis, Pre swab (baseline), left nostril, mean of triplicate plates
[10] = Initial Analysis, Pre swab (baseline), right nostril
[11] = Second Analysis, Post-treatment swab, left nostril
[12] = Second Analysis, Post-treatment swab, right nostril
[13] = Second Analysis, Pre swab, left nostril
[14] = Second Analysis, Pre swab, right nostril
[15] = Third Analysis, Swab, left nostril
[16] = Third Analysis, Swab, right nostril
[17] = patient 01-005, 2% erythromycin paste three times a day for five days

Structure (SMILES): CC[C@H]1OC(=O)[C@H](C)[C@@H](O[C@H]2C[C@@](C)(OC)[C@@H](O)[C@H](C)O2)[C@H](C)[C@@H](O[C@@H]2O[C@H](C)C[C@H](N(C)C)[C@H]2O)[C@](C)(O)C[C@@H](C)C(=O)[C@H](C)[C@@H](O)[C@]1(C)O [Erythromycin]
- effect of sub-lethal NIMELS irradiation on antibiotic action against MRSA colonies (words) [1]: successful reversal of MRSA resistance
- effect of sub-lethal NIMELS irradiation on antibiotic action against MRSA colonies (words) ([1]; listed as erythromycin): resistance to erythromycin being reversed
- MRSA colony count, CONTROL (no laser) ([1]; no laser, agar with erythro 4 ug/ml, replicates B-4 1 to 5): 196 and 168 and 175 and 177 and 195
- MRSA colony count, EXPERIMENTAL ([1]; sub-lethal NIMELS laser, agar with erythro 4 ug/ml, replicates B-4 1 to 5): 27 and 39 (2×) and 35 and 28
- MRSA Average [2, 7]: 0 CFU (2×) and 166 CFU
- MRSA Average [2, 8]: 0 CFU (2×) and 1 CFU
- MRSA Average [2, 9]: 0 CFU (2×) and 3072 CFU
- MRSA Average [2, 10]: 0 CFU (2×) and 8 CFU
- MRSA Average [2, 11]: 0 CFU
- MRSA Average [2, 12]: 0 CFU
- MRSA Average [2, 13]: 0 CFU (2×) and 76 CFU
- MRSA Average [2, 14]: 0 CFU
- MRSA Average [2, 15]: 0 CFU
- MRSA Average [2, 16]: 0 CFU
- reduction of bioburden ([2]; patient 01-005, heavily colonized nostril): ≥ 3 log
- reduction of bioburden ([2]; patient 01-005, moderately colonized nostril): ≥ 2 log
- outcome on MRSA colonization, laser plus topical erythromycin [2, 17]: eradication in both nostrils
- s. aureus Average [3, 7]: 0 CFU (2×) and 188 CFU
- s. aureus Average [3, 8]: 0 CFU
- s. aureus Average [3, 9]: 0 CFU (2×) and 3045 CFU
- s. aureus Average [3, 10]: 0 CFU (2×) and 16 CFU
- s. aureus Average [3, 11]: 0 CFU
- s. aureus Average [3, 12]: 0 CFU
- s. aureus Average [3, 13]: 0 CFU (2×) and 71 CFU
- s. aureus Average [3, 14]: 0 CFU
- s. aureus Average [3, 15]: 0 CFU
- s. aureus Average [3, 16]: 0 CFU
- outcome on MSSA colonization, laser plus topical erythromycin [3, 17]: eradication in both nostrils
- reduction in MSSA [4]: 3 log

Structure (SMILES): CN(C/C=C/C#CC(C)(C)C)Cc1cccc2ccccc12 [Lamisil, terbinafine]
- effect of sub-lethal NIMELS irradiation on antifungal action against C. albicans colonies ([5]; 0.5 ug/ml): potentiated by a sub-lethal dosimetry irradiation
- C. albicans Colony Counts, Control ([5]; Lamisil 0.5 ug/ml): 290 and 335 and 334 and 280
- C. albicans Colony Counts, Experimental ([5]; Lamisil 0.5 ug/ml): 101 and 70 and 90 and 78 and 74

Structure (SMILES): CCC(C)n1ncn(-c2ccc(N3CCN(c4ccc(OCC5COC(Cn6cncn6)(c6ccc(Cl)cc6Cl)O5)cc4)CC3)cc2)c1=O (stereo not drawn) [Sporanox, itraconazole]
- C. albicans Colony Counts, Control ([5]; Sporanox 0.5 ug/ml): 360 and 332 and 320 and 311 and 295
- C. albicans Colony Counts, Experimental ([5]; Sporanox 0.5 ug/ml): 110 and 86 and 91 and 80 and 107

Structure (SMILES): CCCCCCCCCC(=O)N[C@@H](Cc1c[nH]c2ccccc12)C(=O)N[C@H](CC(N)=O)C(=O)N[C@@H](CC(=O)O)C(=O)N[C@@H]1C(=O)NCC(=O)N[C@@H](CCCN)C(=O)N[C@@H](CC(=O)O)C(=O)N[C@H](C)C(=O)N[C@@H](CC(=O)O)C(=O)NCC(=O)N[C@H](CO)C(=O)N[C@@H]([C@H](C)CC(=O)O)C(=O)N[C@@H](CC(=O)c2ccccc2N)C(=O)O[C@@H]1C [daptomycin]
- daptomycin concentration to achieve a 3-log reduction ([6]; cell growth halted by erythromycin, within 2 h): 10 μg/ml
- daptomycin concentration to achieve a 3-log reduction ([6]; used alone, stationary phase S. aureus, 10^10 CFU/ml): 32 μg/ml
